Tested on: passive cutaneous anaphylactic reaction (PCA)
Test: Inhibition of passive cutaneous anaphylaxis (PCA) in rats, reaginic antibody to egg albumin
Format: in vivo, rat
Settings: for inhibition in vivo at 3 mg/kg: dose 3.0 mg/kg (table head: p.o.; method b438: intravenously immediately before the antigen)
[1] = Rattus norvegicus, po, rats, 6 animals per dose

| Compound | inhibition in vivo at 3 mg/kg [1] [%] | inhibition in vivo at 100 mg/kg (Rattus norvegicus, po, dose 100.0 mg/kg (table head: p.o.; method b438: intravenously immediately before the antigen), rats, 6 animals per dose, comparison compound) [%] | times more substance that must be used than of 7-[3-(4-benzamido-piperidino)-propoxy]-3,4-dimethylcoumarin for comparable inhibition of the passive cutaneous anaphylactoid reaction (relative to 7-[3-(4-benzamido-piperidino)-propoxy]-3,4-dimethylcoumarin (Example 1), PCA test in vivo in rats) |
| --- | --- | --- | --- |
| Cc1cc(=O)[nH]c2ccc(OCCCN3CCC(NC(=O)c4ccccc4)CC3)cc12 [Example 8, 6-[3-(4-Benzamido-piperidino)-propoxy]-4-methyl-2-oxo-1,2-dihydroquinoline] | 34 |  |  |
| Cc1c(C)c2ccc(OCCCN3CCC(NC(=O)c4ccccc4)CC3)cc2oc1=O [Example 1, 7-[3-(4-Benzamido-piperidino)-propoxy]-3,4-dimethylcoumarin] | 50 |  |  |
| Cc1c(C)c2ccc(OCCCN3CCC(NC(=O)c4ccc(F)cc4)CC3)cc2oc1=O [Example 2a, 3,4-Dimethyl-7-{3-[4-(4-fluoro-benzamido)-piperidino]-propoxy}-coumarin] | 59 |  |  |
| COc1ccc(C(=O)NC2CCN(CCCOc3ccc4c(C)c(C)c(=O)oc4c3)CC2)cc1 [Example 2b, 3,4-Dimethyl-7-{3-[4-(4-methoxy-benzamido)-piperidino]-propoxy}-coumarin] | 36 |  |  |
| Cc1c(C)c2ccc(OCCCN3CCC(NC(=O)c4ccc(C(C)(C)C)cc4)CC3)cc2oc1=O [Example 2d, 7-{3-[4-(4-t.-Butyl-benzamido)-piperidino]-propoxy}-3,4-dimethyl-coumarin] | 52 |  |  |
| Cc1cc(=O)n(C)c2ccc(OCCCN3CCC(NC(=O)c4ccccc4)CC3)cc12 [Example 10, 6-[3-(4-Benzamido-piperidino)-propoxy]-1,4-dimethyl-2-oxo-1,2-dihydroquinoline] | 54 |  |  |
| Cc1cc(=O)oc2ccc(OCCCN3CCC(NC(=O)c4ccccc4)CC3)cc12 [Example 4a, 6-[3-(4-Benzamido-piperidino)-propoxy]-4-methyl-coumarin] | 61 |  |  |
| Cc1c(C)c2ccc(OCCCN3CCC(NC(=O)c4ccc(Cl)cc4)CC3)cc2oc1=O [Example 6, 7-{3-[4-(4-Chlorobenzamido)-piperidino]-propoxy}-3,4-dimethylcoumarin] | 30 |  |  |
| CCN(CC)C(=O)N1CCN(C)CC1 [Diethylcarbamazin, 1-diethylcarbamoyl-4-methylpiperazine, reference compound] |  | 47 | about 40 times |
| Cc1c(C)c2ccc(OCCCN3CCC(NC(=O)c4cccs4)CC3)cc2oc1=O [Example 7b] | 23 |  |  |

— patent US4330549A, “Coumarins connected via an oxyalkyl group with a piperidine ring having anti-allergic action” (Boehringer Mannheim GmbH, priority 1979, dated 1982)
